Test results published in PubChem BioAssay (NCI).
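Following 48 hours of exposure in 96-well plates, responses at five concentrations were used to interpolate endpoints linearly. The concentration for full growth arrest is given as TGI.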

Key:
Assay in all cases: NCI-60 cell line screen, 48 h
SF-268 CNS = tested on: SF-268 CNS
CAKI-1 renal = tested on: CAKI-1 renal
UO-31 renal = tested on: UO-31 renal
M19-MEL melanoma = tested on: M19-MEL melanoma
XF 498 CNS = tested on: XF 498 CNS
MCF7 breast = tested on: MCF7 breast
ACHN renal = tested on: ACHN renal
SF-539 CNS = tested on: SF-539 CNS
NCI-H226 lung = tested on: NCI-H226 lung
RXF-631 renal = tested on: RXF-631 renal
M14 melanoma = tested on: M14 melanoma
K-562 leukemia = tested on: K-562 leukemia
SNB-19 CNS = tested on: SNB-19 CNS
T-47D breast = tested on: T-47D breast
KM12 colon = tested on: KM12 colon
HT29 colon = tested on: HT29 colon
RPMI-8226 leukemia = tested on: RPMI-8226 leukemia
EKVX NSCLC = tested on: EKVX NSCLC
NCI/ADR-RES ovarian = tested on: NCI/ADR-RES ovarian
A498 renal = tested on: A498 renal
HS 578T breast = tested on: HS 578T breast
HOP-92 NSCLC = tested on: HOP-92 NSCLC
CCRF-CEM leukemia = tested on: CCRF-CEM leukemia
HOP-62 NSCLC = tested on: HOP-62 NSCLC
KM20L2 colon = tested on: KM20L2 colon
NCI-H460 lung = tested on: NCI-H460 lung
DLD-1 colon = tested on: DLD-1 colon
SN12C renal = tested on: SN12C renal
UACC-62 melanoma = tested on: UACC-62 melanoma
NCI-H522 lung = tested on: NCI-H522 lung
SNB-75 CNS = tested on: SNB-75 CNS
MDA-MB-435 = tested on: MDA-MB-435
IGROV1 ovarian = tested on: IGROV1 ovarian
SR leukemia = tested on: SR leukemia
HL-60(TB) leukemia = tested on: HL-60(TB) leukemia
A549 NSCLC = tested on: A549 NSCLC
COLO 205 colon = tested on: COLO 205 colon
LXFL 529 NSCLC = tested on: LXFL 529 NSCLC
U251 CNS = tested on: U251 CNS
HCT-116 colon = tested on: HCT-116 colon
DMS 273 small cell lung = tested on: DMS 273 small cell lung
PC-3 prostate = tested on: PC-3 prostate
DMS 114 small cell lung = tested on: DMS 114 small cell lung
SF-295 CNS = tested on: SF-295 CNS
MDA-N = tested on: MDA-N
SK-OV-3 ovarian = tested on: SK-OV-3 ovarian
NCI-H23 lung = tested on: NCI-H23 lung
DU-145 prostate = tested on: DU-145 prostate
MOLT-4 leukemia = tested on: MOLT-4 leukemia
SK-MEL-5 melanoma = tested on: SK-MEL-5 melanoma
MDA-MB-231 breast = tested on: MDA-MB-231 breast
UACC-257 melanoma = tested on: UACC-257 melanoma
OVCAR-3 ovarian = tested on: OVCAR-3 ovarian
LOX IMVI melanoma = tested on: LOX IMVI melanoma
OVCAR-4 ovarian = tested on: OVCAR-4 ovarian
OVCAR-5 ovarian = tested on: OVCAR-5 ovarian
BT-549 breast = tested on: BT-549 breast
SK-MEL-2 melanoma = tested on: SK-MEL-2 melanoma
HCC-2998 colon = tested on: HCC-2998 colon
OVCAR-8 ovarian = tested on: OVCAR-8 ovarian
TK-10 renal = tested on: TK-10 renal
SK-MEL-28 melanoma = tested on: SK-MEL-28 melanoma
786-0 renal = tested on: 786-0 renal
MALME-3M melanoma = tested on: MALME-3M melanoma
RXF 393 renal = tested on: RXF 393 renal
HCT-15 colon = tested on: HCT-15 colon
SW-620 colon = tested on: SW-620 colon
SNB-78 CNS = tested on: SNB-78 CNS
HOP-18 NSCLC = tested on: HOP-18 NSCLC

Nc1nc2c(ncn2C2CCC(CO)O2)c(=O)n1C(=O)c1ccccc1 (centres undefined)
TGI (SF-268 CNS): > 100 µM
TGI (CAKI-1 renal): > 100 µM
TGI (UO-31 renal): > 100 µM
TGI (M19-MEL melanoma): > 100 µM
TGI (XF 498 CNS): > 100 µM
TGI (MCF7 breast): > 100 µM
TGI (ACHN renal): > 100 µM
TGI (SF-539 CNS): > 100 µM
TGI (NCI-H226 lung): > 100 µM
TGI (RXF-631 renal): > 100 µM
TGI (M14 melanoma): > 100 µM
TGI (K-562 leukemia): > 100 µM
TGI (SNB-19 CNS): > 100 µM
TGI (T-47D breast): > 100 µM
TGI (KM12 colon): > 100 µM
TGI (HT29 colon): > 100 µM
TGI (RPMI-8226 leukemia): > 100 µM
TGI (EKVX NSCLC): > 100 µM
TGI (NCI/ADR-RES ovarian): > 100 µM
TGI (A498 renal): > 100 µM
TGI (HS 578T breast): > 100 µM
TGI (HOP-92 NSCLC): > 100 µM
TGI (CCRF-CEM leukemia): > 100 µM
TGI (HOP-62 NSCLC): > 100 µM
TGI (KM20L2 colon): > 100 µM
TGI (NCI-H460 lung): > 100 µM
TGI (DLD-1 colon): > 100 µM
TGI (SN12C renal): > 100 µM
TGI (UACC-62 melanoma): > 100 µM
TGI (NCI-H522 lung): > 100 µM
TGI (SNB-75 CNS): > 100 µM
TGI (MDA-MB-435): > 100 µM
TGI (IGROV1 ovarian): > 100 µM
TGI (SR leukemia): > 100 µM
TGI (HL-60(TB) leukemia): > 100 µM
TGI (A549 NSCLC): > 100 µM
TGI (COLO 205 colon): > 100 µM
TGI (LXFL 529 NSCLC): > 100 µM
TGI (U251 CNS): > 100 µM
TGI (HCT-116 colon): > 100 µM
TGI (DMS 273 small cell lung): > 100 µM
TGI (PC-3 prostate): > 100 µM
TGI (DMS 114 small cell lung): > 100 µM
TGI (SF-295 CNS): > 100 µM
TGI (MDA-N): > 100 µM
TGI (SK-OV-3 ovarian): > 100 µM
TGI (NCI-H23 lung): > 100 µM
TGI (DU-145 prostate): > 100 µM
TGI (MOLT-4 leukemia): > 100 µM
TGI (SK-MEL-5 melanoma): > 100 µM
TGI (MDA-MB-231 breast): > 100 µM
TGI (UACC-257 melanoma): > 100 µM
TGI (OVCAR-3 ovarian): > 100 µM
TGI (LOX IMVI melanoma): > 100 µM
TGI (OVCAR-4 ovarian): > 100 µM
TGI (OVCAR-5 ovarian): > 100 µM
TGI (BT-549 breast): > 100 µM
TGI (SK-MEL-2 melanoma): > 100 µM
TGI (HCC-2998 colon): > 100 µM
TGI (OVCAR-8 ovarian): > 100 µM
TGI (TK-10 renal): > 100 µM
TGI (SK-MEL-28 melanoma): > 100 µM
TGI (786-0 renal): > 100 µM
TGI (MALME-3M melanoma): > 100 µM
TGI (RXF 393 renal): > 100 µM
TGI (HCT-15 colon): > 100 µM
TGI (SW-620 colon): > 100 µM

CN1C(=O)CCC2[C@@H]3CC=C4C[C@@H](O)CC[C@]4(C)C3CC[C@@]21C (some centres undefined)
TGI (CAKI-1 renal): > 100 µM
TGI (UO-31 renal): > 100 µM
TGI (M19-MEL melanoma): > 100 µM
TGI (XF 498 CNS): > 100 µM
TGI (ACHN renal): > 100 µM
TGI (SF-539 CNS): > 100 µM
TGI (NCI-H226 lung): > 100 µM
TGI (RXF-631 renal): > 100 µM
TGI (M14 melanoma): > 100 µM
TGI (K-562 leukemia): > 100 µM
TGI (KM12 colon): > 100 µM
TGI (HT29 colon): > 100 µM
TGI (RPMI-8226 leukemia): > 100 µM
TGI (EKVX NSCLC): > 100 µM
TGI (SNB-78 CNS): > 100 µM
TGI (A498 renal): > 100 µM
TGI (CCRF-CEM leukemia): > 100 µM
TGI (HOP-62 NSCLC): > 100 µM
TGI (KM20L2 colon): > 100 µM
TGI (NCI-H460 lung): > 100 µM
TGI (DLD-1 colon): > 100 µM
TGI (UACC-62 melanoma): > 100 µM
TGI (SNB-75 CNS): > 100 µM
TGI (IGROV1 ovarian): > 100 µM
TGI (HL-60(TB) leukemia): 56 µM
TGI (A549 NSCLC): > 100 µM
TGI (LXFL 529 NSCLC): > 100 µM
TGI (U251 CNS): > 100 µM
TGI (HCT-116 colon): > 100 µM
TGI (DMS 273 small cell lung): > 100 µM
TGI (DMS 114 small cell lung): > 100 µM
TGI (SF-295 CNS): > 100 µM
TGI (SK-OV-3 ovarian): > 100 µM
TGI (NCI-H23 lung): > 100 µM
TGI (MOLT-4 leukemia): 69.6 µM
TGI (SK-MEL-5 melanoma): 50.3 µM
TGI (UACC-257 melanoma): > 100 µM
TGI (OVCAR-3 ovarian): > 100 µM
TGI (OVCAR-4 ovarian): > 100 µM
TGI (OVCAR-5 ovarian): > 100 µM
TGI (SK-MEL-2 melanoma): > 100 µM
TGI (HCC-2998 colon): > 100 µM
TGI (OVCAR-8 ovarian): > 100 µM
TGI (TK-10 renal): > 100 µM
TGI (SK-MEL-28 melanoma): > 100 µM
TGI (786-0 renal): > 100 µM
TGI (MALME-3M melanoma): > 100 µM
TGI (RXF 393 renal): > 100 µM
TGI (HCT-15 colon): > 100 µM
TGI (SW-620 colon): > 100 µM

CC1=C(O)c2cn(C)cc2C(=O)C1=O
TGI (SF-268 CNS): > 100 µM
TGI (CAKI-1 renal): > 100 µM
TGI (UO-31 renal): > 100 µM
TGI (M19-MEL melanoma): > 100 µM
TGI (XF 498 CNS): > 100 µM
TGI (ACHN renal): > 100 µM
TGI (SF-539 CNS): > 100 µM
TGI (NCI-H226 lung): > 100 µM
TGI (M14 melanoma): > 100 µM
TGI (K-562 leukemia): > 100 µM
TGI (SNB-19 CNS): > 100 µM
TGI (KM12 colon): > 100 µM
TGI (HT29 colon): > 100 µM
TGI (RPMI-8226 leukemia): > 100 µM
TGI (EKVX NSCLC): > 100 µM
TGI (SNB-78 CNS): > 100 µM
TGI (A498 renal): > 100 µM
TGI (HOP-92 NSCLC): > 100 µM
TGI (CCRF-CEM leukemia): > 100 µM
TGI (HOP-62 NSCLC): > 100 µM
TGI (KM20L2 colon): > 100 µM
TGI (NCI-H460 lung): > 100 µM
TGI (DLD-1 colon): > 100 µM
TGI (SN12C renal): > 100 µM
TGI (UACC-62 melanoma): > 100 µM
TGI (SNB-75 CNS): > 100 µM
TGI (IGROV1 ovarian): > 100 µM
TGI (SR leukemia): > 100 µM
TGI (HL-60(TB) leukemia): > 100 µM
TGI (A549 NSCLC): > 100 µM
TGI (COLO 205 colon): > 100 µM
TGI (LXFL 529 NSCLC): > 100 µM
TGI (U251 CNS): > 100 µM
TGI (HCT-116 colon): > 100 µM
TGI (HOP-18 NSCLC): > 100 µM
TGI (DMS 273 small cell lung): > 100 µM
TGI (DMS 114 small cell lung): > 100 µM
TGI (SF-295 CNS): > 100 µM
TGI (SK-OV-3 ovarian): > 100 µM
TGI (NCI-H23 lung): > 100 µM
TGI (MOLT-4 leukemia): > 100 µM
TGI (SK-MEL-5 melanoma): > 100 µM
TGI (UACC-257 melanoma): > 100 µM
TGI (OVCAR-3 ovarian): > 100 µM
TGI (LOX IMVI melanoma): > 100 µM
TGI (OVCAR-4 ovarian): > 100 µM
TGI (OVCAR-5 ovarian): > 100 µM
TGI (SK-MEL-2 melanoma): > 100 µM
TGI (HCC-2998 colon): > 100 µM
TGI (OVCAR-8 ovarian): > 100 µM
TGI (TK-10 renal): > 100 µM
TGI (SK-MEL-28 melanoma): > 100 µM
TGI (786-0 renal): > 100 µM
TGI (MALME-3M melanoma): > 100 µM
TGI (RXF 393 renal): > 100 µM
TGI (HCT-15 colon): > 100 µM
TGI (SW-620 colon): > 100 µM
